# In US20230392170A1, “BIG-IN: A VERSATILE PLATFORM FOR LOCUS-SCALE GENOME REWRITING AND VERIFICATION” (New York University, priority 2020, published 2023):
# Entries after “also recorded” stand apart in the source; their conditions may differ.
# Legend:
# H1 hESCs [1] = assay: TK/GCV counterselection in co-cultures of TK-negative and TK-positive (LP-TK) cells, live cells by PrestoBlue; format: cell-based, human; conditions: 1 μM GCV for 4 days
# Description: FIG. 2. Development of an efficient counterselection strategy. a, Parental (TK−) and LP-TK (TK+) H1 hESCs were co-cultured at the indicated ratios, treated with 1 μM, GCV for 4 days, and assayed for the number of live cells using PrestoBlue. Cell counts are shown relative to unmixed parental cells. Bars show mean+S.D. (n=2). b, GCV enters TK+ cells and is metabolized into the toxic membrane-impermeable compound GCV-TP, which diffuses into neighboring cells and induces bystander cell death in TK-cells. c, Big-IN counterselection strategy using PIGA/Proaerolysin. d, Parental and ΔPIGA H1 hESCs co-cultured at the indicated ratios for three days were treated with 1 nM proaerolysin for 1 day and stained with Crystal Violet 3 days later. e, Parental and ΔPiga BL6xCAST mESCs were co-cultured at the indicated ratios for one day, treated with 1 nM proaerolysin for 1 day, stained with Crystal Violet 5 days later, and colonies were counted. Bars represent mean+S.D. (n=2).
# Delivery of large DNA through cassette exchange is an infrequent event, requiring selection to obtain practical efficiency. The HSV1-TK gene is a widely used counterselectable marker that renders cells sensitive to GCV by converting it to the toxic metabolite GCV-triphosphate (GCV-TP), which inhibits DNA synthesis and leads to cell death^38. […]
# Parental H1 cells = assay: GCV/TK bystander paracrine test: parental cells in medium or LP-TK conditioned medium with GCV; format: cell-based, human; conditions: 0.1 μM GCV, 7 days, also when preincubated with LP-TK cells (conditioned medium)
# Description: FIG. 8. Development of an efficient counterselection strategy. a, Lack of paracrine activity in GCV/TK bystander effect. Parental H1 cells were grown for 7 days with regular StemFlex medium with or without 0.1 μM GCV or with a 1:1 mixture of regular medium and conditioned medium harvested from LP-TK cells grown with or without 0.1 μM GCV. […] Bars represent mean+S.D. for technical replicates (n=3). b, PCR genotyping for parental (Par), ΔPIGA and LP-PIGA H1 hESCs. Primers target a region of the PIGA gene (WT PIGA), the novel junction formed following PIGA deletion (ΔPIGA), a region of HPRT1 gene (WT HPRT1) and the two novel junctions formed between LP-PIGA and the surrounding genome (LP L and R Jx). c, Proaerolysin-induced cell death. The indicated H1 hESCs were treated with 0.5 nM proaerolysin for 1 day and stained with Crystal Violet. Proaerolysin resistance is conferred by PIGA inactivation and restored by hmPIGA expression. d, Rapid proaerolysin-induced cell death. e, Proaerolysin kill-curve for H1 hESCs and BL6xCAST mESCs. Cells were treated with proaerolysin for 1 day and assayed 3 days (H1) or 1 day (BL6xCAST) post treatment. Experiment was conducted in replicates (H1, n=4; BL6xCAST, n=2) and data are represented as mean±S.D. f, CD59/HLA flow cytometry of H1 hESCs. […]
# [2] = system: H1 LP-TK hESCs (HSV1-ΔTK); assay: GCV kill-curve assay, LP-TK clone 581 vs parental cells, live cells by PrestoBlue; conditions: indicated GCV concentrations for 3 days
# Description: Bars represent mean+S.D. of technical replicates (n=3). c, H1 LP-TK clone 581 and non-engineered parental H1 hESCs were treated with the indicated concentrations of GCV for 3 days, followed by quantification of live cells using PrestoBlue. Data were normalized to the value of untreated cells.
# PrestoBlue (ThermoFisher Scientific A13262) staining was performed according to the manufacturer's protocol.
# H1 hESCs [3] = assay: Proaerolysin-induced cell death, Crystal Violet staining / kill-curve; format: cell-based, human
# Description: FIG. 8. Development of an efficient counterselection strategy. a, Lack of paracrine activity in GCV/TK bystander effect. Parental H1 cells were grown for 7 days with regular StemFlex medium with or without 0.1 μM GCV or with a 1:1 mixture of regular medium and conditioned medium harvested from LP-TK cells grown with or without 0.1 μM GCV. […] Bars represent mean+S.D. for technical replicates (n=3). b, PCR genotyping for parental (Par), ΔPIGA and LP-PIGA H1 hESCs. Primers target a region of the PIGA gene (WT PIGA), the novel junction formed following PIGA deletion (ΔPIGA), a region of HPRT1 gene (WT HPRT1) and the two novel junctions formed between LP-PIGA and the surrounding genome (LP L and R Jx). c, Proaerolysin-induced cell death. The indicated H1 hESCs were treated with 0.5 nM proaerolysin for 1 day and stained with Crystal Violet. Proaerolysin resistance is conferred by PIGA inactivation and restored by hmPIGA expression. d, Rapid proaerolysin-induced cell death. e, Proaerolysin kill-curve for H1 hESCs and BL6xCAST mESCs. Cells were treated with proaerolysin for 1 day and assayed 3 days (H1) or 1 day (BL6xCAST) post treatment. Experiment was conducted in replicates (H1, n=4; BL6xCAST, n=2) and data are represented as mean±S.D. f, CD59/HLA flow cytometry of H1 hESCs. Note the complete loss of CD59, a GPI-anchored protein, in ΔPIGA cells, and the retention of HLA, a non-GPI-anchored membranal protein. g, Flow cytometry of H1 hESCs showing the reconstitution of CD59 expression in LP-PIGA cells.
# Integration of a landing pad expressing a human mini PIGA gene (hmPIGA) to the HPRT1 locus resensitized H1 ΔPIGA hESCs to proaerolysin and restored CD59 expression (FIG. 7c, FIG. 7g). Importantly, rare ΔPIGA H1 hESCs were efficiently isolated when co-cultured with parental H1 cells by applying proaerolysin selection (FIG. 2d). Similarly, the Piga/proaerolysin counterselection strategy was used to efficiently isolate rare mESCs (FIG. 2e).
Molecule,TK-negative cells that died when mixed with TK-positive cells (H1 hESCs [1]; 1:1 ratio TK-negative:TK-positive),death of TK-negative cells when mixed with TK-positive cells (H1 hESCs [1]; 1:10 ratio TK-negative:TK-positive),effect on parental (TK-negative) H1 cells (Parental H1 cells),cytotoxicity to LP-TK (HSV1-ΔTK expressing) H1 hESCs [2],sensitivity of H1 ΔPIGA hESCs after landing pad expressing hmPIGA at HPRT1 (H1 hESCs [3]; LP-PIGA H1 hESCs),killing of parental H1 hESCs (H1 hESCs [3]; parental H1 hESCs),sensitivity of ΔPIGA H1 hESCs (H1 hESCs [3]; ΔPIGA cells (PIGA deleted using CRISPR/Cas9))
"Nc1nc(O)c2ncn(COC(CO)CO)c2n1 [GCV, Ganciclovir]",More than 80%,all died,no effect,kills LP-TK cells; also recorded: Robust cytotoxic activity,–,–,–
proaerolysin: a bacterial prototoxin; perforates the plasma membrane upon binding to GPI anchors on the cell surface,–,–,–,–,resensitized,efficiently killed,entirely resistant
